Laboratory results from US11357777B2, “Use of sGC stimulators for the treatment of nonalcoholic steatohepatitis (NASH)” (Cyclerion Therapeutics, Inc., priority 2016, dated 2022).
Entries after “also recorded” stand apart in the source; their conditions may differ. Where two headings read alike, the source gives them in different places.

Key:
[1] = test system: WT mice fed a high fat diet (HFD); conditions: cited from earlier work
primary white adipocytes = conditions: cited from earlier work
human brown adipocytes = conditions: cited from earlier work
[2] = test system: alpha-SMA (alpha-smooth muscle actin) mRNA expression; experiment: CCl4-induced changes in liver fibrosis marker in C57BL/6 mice; assay type: in vivo
Procedure: A pilot study using male C57BL/6 mice was carried out to explore the changes in liver fibrosis biomarker after one single injection of carbon tetrachloride (CCl4) given by intraperitoneal (IP) administration and the effect of several substances, including an sGC stimulator, in this model. Injection of CCl4 in mice results in elevation of alpha-SMA (alpha-smooth muscle actin) mRNA expression and this can be used as a biomarker of fibrosis in the liver. A reduction in the expression levels of this biomarker and reversal towards the normal levels, upon administration of an sGC stimulator, can be used to assess the potential utility of the compound in the treatment of liver fibrosis.
Mice used were 8 weeks old at receipt, healthy, and unused in other experimental procedures. Housing and care were as specified in the USDA Animal Welfare Act (9 CFR, Parts 1, and 3) and as described in the Guide for the Care and Use of Laboratory Animals from the National Research Council. Environmental conditions in housing rooms were set at the following ranges for acclimation and naive groups: temperature: 68±5° F. […], humidity: 50±:20%; light cycle: 12 hour light/12-hour dark; air changes: ten or more changes per hour with 100% HEPA filtered fresh air. Mice were given regular chow and water ad libitum and were not fasted overnight prior to compound administration.
CCl4 was dosed once to all animals, via intraperitoneal administration (IP) at a concentration of 15 μl (dissolved in 85 μl of corn or olive oil) and a dose volume of 100 μl per 30 g of mouse. Compound A was dosed to mice via oral administration (PO, by oral gavage), BID for 3 days at a concentration of 3 mg/mL (0.5% Methylcellulose) and a dose volume of […]. The single dose of CCl4 was administered two hours after the first dose of Compound A. The second dose of Compound A was administered 7 hours after the first dose. After three days of dosing, the animals were sacrificed and plasma and liver samples obtained for analysis.
Total RNA was extracted from isolated tissues by adding 1 ml Trizol and a stainless steel bead to each sample, and homogenized using a TissueLyser II at the highest speed (30 Hz) for 2 minutes at room temperature. After homogenization, 200 μl chloroform was added to each homogenized sample. The homogenate was vortexed briefly and left in an upright position at room temperature for 2-5 minutes until phase separation became visible by eye. Samples were centrifuged for 15 minutes at the highest speed (13,200 rpm) at 4° C. in an Eppendorf centrifuge.
After 15 minutes at the highest speed (13,200 rpm) centrifugation at 4° C., the supernatant of each sample (˜500 μl) was transferred into a new RNase-free tube. […]

[3] = Distribution of sGC stimulators in tissues, rats (liver and plasma by LC-MS/MS); assay type: in vivo; conditions: Wistar, rat, 2 h post fifth dose, male rats, read-out: total Liver:Plasma ratio
Procedure: The purpose of this experiment was to determine compound concentrations in the plasma and tissues of animals dosed with sGC stimulators for 5 days Q.D.
In a first experiment, the sGC stimulator Compound B (described previously in Example 2) was dosed for 5 Days Q.D. to male Wister rats. Rats were divided into four study groups and dosed according to the below table:
The animals were dosed daily for five consecutive days according the table above. On each day of dosing, frozen aliquots of each dosing solution were thawed and the animals were weighed and dosed accordingly. On day 5, two hours post the fifth dose, blood was collected by orbital bleed. Blood samples were collected in EDTA tubes pre-loaded with 5 μL of 100 mM IBMX Plasma was be separated by centrifugation for 10 minutes at 4° C. and then stored at −80° C.
A Ketamine/Xylazine/pbs solution as a 5:1:4 ratio was administered I.P. at 1 ul per gram. Once the rat was fully anesthetized (as determined by checking its reflexes) and while the heart was still beating, a needle was inserted into the left ventricle. Approximately 20 mls of PBS/IBMX/heparin solution were then perfused. The right atrium was snipped, and perfusion continued for approximately 10 additional mls (30 mls total). At this point, the femoral artery was snipped and perfusion was continued until there was no longer blood (only clear fluid) collecting in the abdominal cavity. Several tissues, including liver, were isolated and weighed followed by snap freezing.
A second separate and similar experiment was carried out with Compound C. The structure of Compound C is depicted below. The preparation and characterization of this compound was described in patent application publication WO2014144100, published 18 Sep. 2014.
For this second experiment, rats were divided into four study groups and dosed according to the below table:
Samples were analyzed using liquid chromatography (LC) with tandem mass spectrometric detection (MS/MS) using positive electrospray ionization. The standard curve range was from 0.1 to 400 ng/mL. […]
In order to prepare the tissues for measurement, the naïve livers and the livers isolated after treatment were removed from the −80° C. freezer and placed on liquid nitrogen. The liver weight was recorded and then the tissue placed in a Geno grinding vial containing two 7/16″ steel beads. […] Approximately 200 mg of tissue from each sample was weighed and recorded. […] The samples were analyzed by LC-MS/MS.
Total liver and plasma concentrations were measured and liver concentrations were corrected for total liver weight. Liver: Plasma ratios were determined by dividing liver compound concentration by the plasma compound concentration. […]

rat animal model of NASH = conditions: cited from earlier work
OB/OB mice = conditions: cited from earlier work
[4] = 8 weeks at 300 mg/kg/24 hours in food and intraperitoneally at 1 mg/kg

Q: Which “lipid uptake into BAT” value [1, 4] does the source give for `Nc1nc(-c2nn(Cc3ccccc3F)c3ncccc23)nc(N)c1N1CCOCC1` [BAY 41-8543] here?
A: Its value is “enhances”.

Q: And the whole-body energy expenditure [1, 4]?
A: Its whole-body energy expenditure is “increases”.

Q: What about the “triglyceride content in the liver” value ([1]; WT mice fed a HFD, obese phenotype, compared to mice fed regular chow) of the same compound?
A: Its value is “significant reduction”.

Q: What about the diabetic phenotype ([1]; mouse, in vivo) of the same compound?
A: Its diabetic phenotype is “improves”.

Q: What about the “diet-induced weight gain and liver steatosis” value ([1]; mouse, in vivo) of the same compound?
A: Its value is “protects against”.

Q: What about the “weight loss in established obesity” value ([1]; mouse, in vivo) of the same compound?
A: Its value is “induces weight loss”.

Q: And the “browning of primary white adipocytes” value (primary white adipocytes)?
A: The value was “induces ‘browning’; also recorded: induces “browning””.

Q: What about the “differentiation of human brown adipocytes” value (human brown adipocytes) of the same compound?
A: Its value is “enhances”.

Q: For `NC(=O)[C@@](O)(CNc1nc(-c2cc(-c3ccon3)n(Cc3ccccc3F)n2)ncc1F)C(F)(F)F` [Compound A], which “relative reduction of the increased alpha-SMA mRNA expression levels” value ([2]; 30 mg/kg dose) is on record?
A: Its value is “about 66%”.

Q: And the “reduction of alpha-SMA expression compared with pirfenidone-treated samples” value ([2]; PO BID for 3 days, single IP CCl4)?
A: The value was “significantly more pronounced”.

Q: What about the “reduction of elevated levels of alpha-SMA expression compared to vehicle” value ([2]; PO BID for 3 days, single IP CCl4, vs vehicle (0.5% methyl cellulose)) of the same compound?
A: Its value is “statistically significant reduction”.

Q: With `NC(=O)[C@](O)(CNc1nc(-c2cc(-c3ccon3)n(Cc3ccccc3F)n2)ncc1F)C(F)(F)F` [Compound C] as the compound, how does the Kp ([3]; 1 mg/kg PO Q.D. 5 days) read?
A: The Kp was 6.

Q: And the Kp ([3]; 10 mg/kg PO Q.D. 5 days)?
A: Its Kp is 8.

Q: Which “onset of NASH” value (rat animal model of NASH) does the source give for `CC(=O)N[C@@H](CSN=O)C(=O)O` [SNAP, S-Nitroso-N-acetylcysteine] here?
A: Its value is “prevent the onset of NASH”.

Q: And the “effect on NASH” value (OB/OB mice)?
A: The value was “prevent and reverse NASH”.

Q: Which “relative reduction of the increased alpha-SMA mRNA expression levels” value ([2]; 400 mg/kg dose) does the source give for `Cc1ccc(=O)n(-c2ccccc2)c1` [pirfenidone, reference compound] here?
A: Its value is “about 20%”.
